Values after ≈ are worked out from the molar mass of the structure shown. Like-named read-outs stand apart in the source and are kept apart here.
Columns and labels:
[1] = test system: VISA clinical isolates of MRSA (VI-MRSA) and of MSSA (VI-MSSA); test: microbe, parasite or virus in culture; format: cell-based, Staphylococcus aureus
Outline: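 Strains were grown overnight at 37° C in TSB, adjusted in CAMHB to 0.3 absorbance at 578 nm and diluted 500-fold before equal-volume addition to compound dilutions.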

[2] = test system: VRSA clinical isolates; test: microbe, parasite or virus in culture; format: cell-based; conditions: Staphylococcus aureus
Procedure: (§1) Each of the bacterial strains listed in Table 1-1 was shake-cultured at 37° C. overnight in 4 mL of a medium (Tryptical Soy Broth: TSB, product of Becton Dickinson and Company). FDA209P was used as a control.
(§2) After completion of culturing, the resultant culture was suspended in a cation-adjusted Mueller Hinton Broth (CAMHB, product of Becton Dickinson and Company). Then, the obtained bacterial culture was adjusted in absorbance with the CAMHB so that the absorbance at 578 nm of the bacterial culture was adjusted to 0.3 measured by an absorption spectrometer. In addition, the resultant bacterial culture was 500-fold diluted with the CAMHB.
(§3) Each of the 500-fold diluted, pre-cultured bacterial cultures was added at 50 μL/well to the CAMHB containing the quinolones and the nybomycins at various concentrations (50 μL/well), followed by statically culturing at 37° C. overnight.
(§4) After completion of culturing, the growth of the bacteria was visually determined based on turbidity to measure MIC in each bacterial strain.
Here, the glycopeptides used were VCM and TEIC. The β-lactam used was OXA.

[3] = test system: methicillin-susceptible S. aureus (MSSA), MRSA and mutants thereof; test: MIC measurement, Test Example 3 (MSSA, MRSA and sequential gyrA/grlA quinolone-resistant mutants); format: cell-based, Staphylococcus aureus; conditions: Staphylococcus aureus
Excerpt: That is, the first-step quinolone-resistant mutants are bacterial strains which are the same as their parent strains (clinical isolates) except that the genes shown in the corresponding parts of Table 1-1 are mutated. The second-step quinolone-resistant mutants are bacterial strains which are the same as the first-step quinolone-resistant mutants except that the genes shown in the corresponding parts of Table 1-1 are further mutated. The third-step quinolone-resistant mutants are bacterial strains which are the same as the second-step quinolone-resistant mutants except that the genes shown in the corresponding parts of Table 1-1 are further mutated. The fourth-step quinolone-resistant strain is a bacterial strain which is the same as the third-step quinolone-resistant mutant bacteria except that the gene shown in the corresponding part of Table 1-1 is further mutated.
as §1, §2, §3, §4

[4] = test system: Enterococcus faecalis; test: MIC measurement, Test Example 6 (enterococcus); format: cell-based; conditions: for MIC: Enterococcus faecalis, read-out: MIC
Procedure: as §1, §2, §3, §4
Quinolones and nybomycins were evaluated for antibacterial activity against Enterococcus faecalis shown in Table 6, wherein the other strains than NCTC12201 and NCTC12203 were subdivided from Shionogi & Co., Ltd (note that these strains are available also from the Department of Bacteriology, Juntendo University). The NCTC strains are both vancomycin-resistant E. faecalis and available from the National Collection of Type Cultures (NCTC).

Compound: Cc1cc(=O)n2c3c(c4c(cc13)c(CO)cc(=O)n4C)OC2 [NM, nybomycin]
- MIC ([1]; Staphylococcus aureus, 99/3700-W, VI-MRSA, The United Kingdom): 0.25 µg/mL (≈ 0.838 µM)
- MIC ([1]; Staphylococcus aureus, 99/3759-V, VI-MRSA, The United Kingdom): 0.5 µg/mL (≈ 1.68 µM)
- MIC ([1]; Staphylococcus aureus, 28160, VI-MRSA, South African Republic): 0.5 µg/mL (≈ 1.68 µM)
- MIC ([1]; Staphylococcus aureus, 98141, VI-MRSA, France): 0.5 µg/mL (≈ 1.68 µM)
- MIC ([1]; Staphylococcus aureus, A7 (JCSC4842), VI-MRSA, Taiwan): 0.125 µg/mL (≈ 0.419 µM)
- MIC ([1]; Staphylococcus aureus, AMC11094, VI-MRSA, Korea): 1 µg/mL (≈ 3.35 µM)
- MIC ([1]; Staphylococcus aureus, B7 (JCSC4852), VI-MRSA, Taiwan): ≤ 0.063 µg/mL
- MIC ([1]; Staphylococcus aureus, BR1, VI-MRSA, Brazil): 0.5 µg/mL (≈ 1.68 µM)
- MIC ([1]; Staphylococcus aureus, BR2, VI-MRSA, Brazil): 0.25 µg/mL (≈ 0.838 µM)
- MIC ([1]; Staphylococcus aureus, BR3, VI-MRSA, Brazil): 0.25 µg/mL (≈ 0.838 µM)
- MIC ([1]; Staphylococcus aureus, BR4, VI-MRSA, Brazil): 0.25 µg/mL (≈ 0.838 µM)
- MIC ([1]; Staphylococcus aureus, BR5, VI-MRSA, Brazil): 0.25 µg/mL (≈ 0.838 µM)
- MIC ([1]; Staphylococcus aureus, HIP06297, VI-MRSA, America): 0.5 µg/mL (≈ 1.68 µM)
- MIC ([1]; Staphylococcus aureus, HIP06854, VI-MRSA, America): 1 µg/mL (≈ 3.35 µM)
- MIC ([1]; Staphylococcus aureus, HIP07920, VI-MRSA, America): 0.25 µg/mL (≈ 0.838 µM)
- MIC ([1]; Staphylococcus aureus, HIP07930, VI-MRSA, America): 1 µg/mL (≈ 3.35 µM)
- MIC ([1]; Staphylococcus aureus, HIP08926, VI-MRSA, America): 0.25 µg/mL (≈ 0.838 µM)
- MIC ([1]; Staphylococcus aureus, HIP09143, VI-MRSA, America): 0.25 µg/mL (≈ 0.838 µM)
- MIC ([1]; Staphylococcus aureus, HIP09313, VI-MRSA, America): 0.5 µg/mL (≈ 1.68 µM)
- MIC ([1]; Staphylococcus aureus, HIP09433, VI-MRSA, America): 1 µg/mL (≈ 3.35 µM)
- MIC ([1]; Staphylococcus aureus, HIP09662, VI-MRSA, America): 1 µg/mL (≈ 3.35 µM)
- MIC ([1]; Staphylococcus aureus, HIP09735, VI-MRSA, America): 0.25 µg/mL (≈ 0.838 µM)
- MIC ([1]; Staphylococcus aureus, HIP09737, VI-MSSA, America): 1 µg/mL (≈ 3.35 µM)
- MIC ([1]; Staphylococcus aureus, HIP09740, VI-MRSA, America): 0.25 µg/mL (≈ 0.838 µM)
- MIC ([1]; Staphylococcus aureus, HIP10267, VI-MRSA, America): 2 µg/mL (≈ 6.7 µM)
- MIC ([1]; Staphylococcus aureus, HIP10540, VI-MRSA, America): 0.25 µg/mL (≈ 0.838 µM)
- MIC ([1]; Staphylococcus aureus, HIP12864, VI-MRSA, America): 0.5 µg/mL (≈ 1.68 µM)
- MIC ([1]; Staphylococcus aureus, HIP13036, VI-MRSA, America): 0.5 µg/mL (≈ 1.68 µM)
- MIC ([1]; Staphylococcus aureus, HIP13057, VI-MRSA, America): 0.25 µg/mL (≈ 0.838 µM)
- MIC ([1]; Staphylococcus aureus, IL (HIP7737), VI-MRSA, America): 1 µg/mL (≈ 3.35 µM)
- MIC ([1]; Staphylococcus aureus, JCSC7193, VI-MRSA, Thailand): 0.33 µg/mL (≈ 1.11 µM)
- MIC ([1]; Staphylococcus aureus, JCSC7195, VI-MRSA, Thailand): 0.33 µg/mL (≈ 1.11 µM)
- MIC ([1]; Staphylococcus aureus, JCSC7203, VI-MRSA, Thailand): 0.16 µg/mL (≈ 0.536 µM)
- MIC ([1]; Staphylococcus aureus, LIM2, VI-MRSA, France): 0.5 µg/mL (≈ 1.68 µM)
- MIC ([1]; Staphylococcus aureus, LY-1999-01, VI-MSSA, Oman): 0.125 µg/mL (≈ 0.419 µM)
- MIC ([1]; Staphylococcus aureus, LY-1999-03, VI-MRSA, Oman): ≤ 0.063 µg/mL
- MIC ([1]; Staphylococcus aureus, MI (HIP5827), VI-MRSA, America): 0.5 µg/mL (≈ 1.68 µM)
- MIC ([1]; Staphylococcus aureus, MRSA / MSSA / NRS 76 / VISA, NRS76, VI-MSSA, America): 0.25 µg/mL (≈ 0.838 µM)
- MIC ([1]; Staphylococcus aureus, MRSA / MSSA / NRS 79 / VISA, NRS79, VI-MRSA, America): 1 µg/mL (≈ 3.35 µM)
- MIC ([1]; Staphylococcus aureus, MRSA / MSSA / NRS 118 / VISA, NRS118, VI-MRSA, America): 0.25 µg/mL (≈ 0.838 µM)
- MIC ([1]; Staphylococcus aureus, MRSA / MSSA / NRS 126 / VISA, NRS126, VI-MRSA, America): 0.5 µg/mL (≈ 1.68 µM)
- MIC ([1]; Staphylococcus aureus, Mu3, VI-MRSA, Japan): 0.5 µg/mL (≈ 1.68 µM)
- MIC ([1]; Staphylococcus aureus, Mu50, VI-MRSA, Japan): 0.25 µg/mL (≈ 0.838 µM)
- MIC ([1]; Staphylococcus aureus, NJ (HIP5836), VI-MRSA, America): 0.5 µg/mL (≈ 1.68 µM)
- MIC ([1]; Staphylococcus aureus, P1V44, VI-MSSA, Belgium): 1 µg/mL (≈ 3.35 µM)
- MIC ([1]; Staphylococcus aureus, PC, VI-MRSA, America): 1 µg/mL (≈ 3.35 µM)
- MIC ([1]; Staphylococcus aureus, SA MER-S6, VI-MSSA, France): 64 µg/mL (≈ 215 µM)
- MIC ([1]; Staphylococcus aureus, SA MER-S12, VI-MSSA, France): 64 µg/mL (≈ 215 µM)
- MIC ([1]; Staphylococcus aureus, SA MER-S20, VI-MSSA, France): > 64 µg/mL
- MIC ([2]; VRS1, VRSA, Michigan): 0.125 µg/mL (≈ 0.419 µM)
- MIC ([2]; VRS2, VRSA, Pennsylvania): 0.25 µg/mL (≈ 0.838 µM)
- MIC ([2]; VRS3, VRSA, New York): 0.125 µg/mL (≈ 0.419 µM)
- MIC ([2]; VRS4, VRSA, New York): 0.125 µg/mL (≈ 0.419 µM)
- MIC ([2]; VRS5, VRSA, Michigan): ≤ 0.063 µg/mL
- MIC ([2]; VRS6, VRSA, Michigan): ≤ 0.063 µg/mL
- MIC ([2]; VRS7, VRSA, Michigan): 0.5 µg/mL (≈ 1.68 µM)
- MIC ([3]; FDA209P / MRSA / MSSA, FDA209P (MSSA), control, read-out: MIC): > 64 µg/mL
- MIC ([3]; MR5867 (MRSA), clinical isolate parent strain, no mutation): > 64 µg/mL
- MIC ([3]; MR5867-1, first-step quinolone-resistant mutant, grlA E84K): > 64 µg/mL
- MIC ([3]; MS5935 (MSSA), clinical isolate parent strain, no mutation, read-out: MIC): > 64 µg/mL
- MIC ([3]; MS5935-1, first-step quinolone-resistant mutant, grlA S80F): > 64 µg/mL
- MIC ([3]; MS5952 (MSSA), clinical isolate parent strain, no mutation, read-out: MIC): > 64 µg/mL
- MIC ([3]; MS5952-1, first-step quinolone-resistant mutant, grlA S80Y): > 64 µg/mL
- MIC ([4]; E. faecalis 36-15672, quinolone-susceptible enterococci): > 64 µg/mL
- MIC ([4]; E. faecalis 36-15673, quinolone-susceptible enterococci): > 64 µg/mL
- MIC ([4]; E. faecalis 36-15678, quinolone-susceptible enterococci): > 64 µg/mL
- MIC ([4]; E. faecalis 36-15686, quinolone-resistant enterococci): 0.5 µg/mL (≈ 1.68 µM)
- MIC ([4]; E. faecalis 36-15688, quinolone-susceptible enterococci): > 64 µg/mL
- MIC ([4]; E. faecalis 36-15694, quinolone-resistant enterococci): 1 µg/mL (≈ 3.35 µM)
- MIC ([4]; E. faecalis 36-15696, quinolone-susceptible enterococci): > 64 µg/mL
- MIC ([4]; E. faecalis 36-15703, quinolone-resistant enterococci): 2 µg/mL (≈ 6.7 µM)
- MIC ([4]; E. faecalis 36-15716, quinolone-resistant enterococci): 1 µg/mL (≈ 3.35 µM)
- MIC ([4]; E. faecalis 36-15718, quinolone-susceptible enterococci): 32 µg/mL (≈ 107 µM)
- MIC ([4]; E. faecalis 36-15720, quinolone-susceptible enterococci): > 64 µg/mL
- MIC ([4]; E. faecalis 36-15722, quinolone-resistant enterococci): 1 µg/mL (≈ 3.35 µM)
- MIC ([4]; E. faecalis 36-15726, quinolone-resistant enterococci): 0.5 µg/mL (≈ 1.68 µM)
- MIC ([4]; E. faecalis 36-15730, quinolone-susceptible enterococci): > 64 µg/mL
- MIC ([4]; E. faecalis 36-15736, quinolone-susceptible enterococci): > 64 µg/mL
- MIC ([4]; E. faecalis 36-15741, quinolone-susceptible enterococci): > 64 µg/mL
- MIC ([4]; NCTC 12201 / VRE, E. faecalis NCTC12201, vancomycin-resistant (VRE), quinolone-susceptible enterococci): 8 µg/mL (≈ 26.8 µM)
- MIC ([4]; NCTC 12203 / VRE, E. faecalis NCTC12203, vancomycin-resistant (VRE), quinolone-susceptible enterococci): 16 µg/mL (≈ 53.6 µM)
- antibacterial activity, comparison between NM and DNM ([4]; against enterococci): higher antibacterial activity against enterococci than DNM

Source: patent US20120258980A1, “Antibacterial Agent for Drug-Resistant Bacteria, Method for Screening for Same, and Use of Same” (priority 2009, published 2012)
